This is an account of results in publication PMC7022596, “Identification of the NADP^+ Structural Binding Site and Coenzyme Effect on the Fused G6PD::6PGL Protein from Giardia lamblia” (Biomolecules, 2019).

The test has as its target T1, fused G6PD::6PGL protein (Giardia duodenalis, UniProt A8BWM5).
T1 construct: gene GL50803_008682; natural fusion of G6PD and 6PGL domains in one open reading frame; pET-3a/g6pd::6pgl in E. coli BL21(DE3)Δzwf::kan^r; 2',5'-ADP Sepharose and Sephacryl 200; dimer
T1 sequence (A8BWM5 1-742): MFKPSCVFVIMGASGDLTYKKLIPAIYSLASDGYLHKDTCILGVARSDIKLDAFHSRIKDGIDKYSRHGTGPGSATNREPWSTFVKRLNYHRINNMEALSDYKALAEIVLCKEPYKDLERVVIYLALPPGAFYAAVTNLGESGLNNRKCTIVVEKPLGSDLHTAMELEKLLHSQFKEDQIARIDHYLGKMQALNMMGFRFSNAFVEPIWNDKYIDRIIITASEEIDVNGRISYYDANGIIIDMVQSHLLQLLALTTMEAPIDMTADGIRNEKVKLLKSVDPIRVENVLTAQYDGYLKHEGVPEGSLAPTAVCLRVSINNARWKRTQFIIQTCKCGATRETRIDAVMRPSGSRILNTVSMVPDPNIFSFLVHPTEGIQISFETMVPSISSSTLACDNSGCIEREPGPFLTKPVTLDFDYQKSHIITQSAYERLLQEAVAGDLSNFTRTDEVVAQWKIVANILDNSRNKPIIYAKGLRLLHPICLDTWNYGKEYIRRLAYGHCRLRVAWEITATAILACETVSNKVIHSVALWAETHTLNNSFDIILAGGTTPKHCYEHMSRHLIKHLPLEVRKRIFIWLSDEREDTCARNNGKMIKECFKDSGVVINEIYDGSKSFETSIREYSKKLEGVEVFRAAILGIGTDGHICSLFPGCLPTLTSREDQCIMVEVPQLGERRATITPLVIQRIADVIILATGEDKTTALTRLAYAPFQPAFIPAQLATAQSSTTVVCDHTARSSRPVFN
Description: intrinsic tryptophan fluorescence quenching titration. Type of test: binding.

What is called Kd is the equilibrium constant for the complex coming apart. Lower therefore signals a tighter complex.

`NC(=O)c1ccc[n+]([C@@H]2O[C@H](COP(=O)(O)OP(=O)(O)OC[C@H]3O[C@@H](n4cnc5c(N)ncnc54)[C@H](OP(=O)(O)O)[C@@H]3O)[C@@H](O)[C@H]2O)c1` [NADP^+] displayed a Kd of 63.2 nM.
